Assay results taken from patent US7091351B2, “Vanadium compounds for treating cancer” (Parker Hughes Institute, priority 1998, dated 2006).

Tests used:
HL-60 cells = test: MTT cytotoxicity assay of oxovanadium(IV) compounds, HL-60; format: cell-based, human; conditions: 48 hr
Description: (§1) The cytotoxicity of oxovanadium (W) complexes listed in Table 6 were tested against 9 different human cancer cell lines was performed using the MTT (3-[4,5-dimethylthiazol-2-yl]-2,5-diphenyl tetrazolium bromide) assay (Boehringer Mannheim Corp., Indianapolis, Ind.) as described previously (20). Briefly, exponentially growing tumor cells were seeded into a 96-well plate at a density of 4×10^4cells/well and incubated with medium containing the oxovanadium(IV) compounds concentrations ranging from 0.1 to 250 μM for 48 hours at 37° C. in a humidified 5% CO2 atmosphere. Triplicate wells were used for each treatment. To each well, 10 μl of MTT (0.5 mg/ml final concentration) was added and the plates were incubated at 37° C. for 4 hours to allow MTT to form formazan crystals by reacting with metabolically active cells . The formazan crystals were solubilized overnight at 37° C. in a solution containing 10% SDS in 0.01 M HCl. The absorbence of each well was measured in a microplate reader (Labsystems) at 540 nm and a reference wavelength of 690 nm. To translate the OD540 values into the number of live cells in each well, the OD540 values were compared to those on standard OD540—versus—cell number curves generated for each cell line. The percent survival was calculated using the formula: % survival=Live cell number[test]/Live cell number [control]×100. The IC50 values were calculated by non-linear regression analysis using an Graphpad Prism software version 2.0 (Graphpad Software, Inc., San Diego, Calif.).

NALM-6 cells [1] = test: In situ detection of apoptosis, confocal microscopy, NALM-6; format: cell-based, human; conditions: 48 hours after treatment
Description: (§2) Exponentially growing cells were seeded in 6-well tissue culture plates and incubated with fresh medium containing compounds. […] The cells were fixed in 2% paraformaldehyde, washed with PBS and pelleted by centrifuging the tubes at 1000 rpm for 5 min. Cells pellets were resuspended in 50 μl of PBS, transferred to superforst plus slides and allowed to attach for 15 min. The cells were permeabilized with 0.1% triton X-100 in 0.1% citrate buffer and incubated for 1 hr at 37° C. with the reaction mixture containing terminal deoxynucleotidyl transferase (TdT) and fluorescein isothiocyanate (FITC)-conjugated dUTP. Cells were washed with PBS to remove unbound reagents and the coverslips were mounted onto slides with Vectashield containing propidium iodide (Vector Labs, Burlingame, Calif.) and slides were viewed with a confocal laser scanning microscope. […] In control reactions, the TdT enzyme was omitted from the reaction mixture.

HS-SULTAN cells = test: In situ detection of apoptosis, confocal microscopy, HS-SULTAN; format: cell-based, human; conditions: 48 hours after treatment
Description: as §2

[2] = system: 64cp5 testicular cancer cells; test: Cytotoxic activity of oxovanadium(IV) compounds, 64cp5; format: cell-based, human; conditions: read-out: Cytotoxic Activity 64cp5
Description: as §1

U373 glioblastoma cells = test: Cytotoxic activity of oxovanadium(IV) compounds, U373; format: cell-based, human; conditions: read-out: Cytotoxic Activity U373
Description: as §1

[3] = system: PC3 prostate cancer cells; test: Cytotoxic activity of oxovanadium(IV) compounds, PC3; format: cell-based, human; conditions: read-out: Cytotoxic Activity PC3
Description: as §1

NALM-6 cells [4] = test: MTT cytotoxicity assay of oxovanadium(IV) compounds, NALM-6; format: cell-based, human; conditions: 48 hr
Description: as §1

[5] = system: HS445 Hodgkin's lymphoma cells; test: MTT cytotoxicity assay of oxovanadium(IV) compounds, HS445; format: cell-based, human; conditions: 48 hr
Description: as §1

[6] = system: ARH77 multiple myeloma cells; test: MTT cytotoxicity assay of oxovanadium(IV) compounds, ARH77; format: cell-based, human; conditions: 48 hr
Description: as §1, with “Briefly, exponentially growing tumor cells were seeded into a 96-well plate at a density of 4×10^4cells/well and incubated with medium containing the oxovanadium(IV) compounds concentrations ranging from 0.1 to 250 μM for 48 hours at 37° C. in a humidified 5% CO2 atmosphere.” left out

[7] = system: Tera-2 testicular cancer cells; test: Cytotoxic activity of oxovanadium(IV) compounds, TERA-2; format: cell-based, human; conditions: read-out: Cytotoxic Activity TERA-2
Description: as §1

BT20 breast cancer cells = test: Cytotoxic activity of oxovanadium(IV) compounds, BT20; format: cell-based, human; conditions: read-out: Cytotoxic Activity BT20
Description: as §1

MOLT-3 cells = test: MTT cytotoxicity assay of oxovanadium(IV) compounds, MOLT-3; format: cell-based, human; conditions: 48 hr
Description: as §1

[8] = system: NTD1 testicular cancer cells; test: Cytotoxic activity of oxovanadium(IV) compounds, NTD1; format: cell-based, human; conditions: read-out: Cytotoxic Activity NTD1
Description: as §1

[9] = system: HS-SULTAN multiple myeloma cells; test: MTT cytotoxicity assay of oxovanadium(IV) compounds, HS-SULTAN; format: cell-based, human; conditions: 48 hr
Description: as §1

[10] = system: 833-K testicular cancer cells; test: Cytotoxic activity of oxovanadium(IV) compounds, 833-K; format: cell-based, human; conditions: read-out: Cytotoxic Activity 833-K
Description: as §1

[11] = system: U266BL multiple myeloma cells; test: MTT cytotoxicity assay of oxovanadium(IV) compounds, U266BL; format: cell-based, human; conditions: 48 hr
Description: as §1

[12] = system: Tera-2 and Ntera-2 human testicular cancer cell lines; test: MTT cytotoxicity assay, text statements for both testicular cancer cell lines; format: cell-based; conditions: Tera-2 and Ntera-2, tested side-by-side, up to 250 μM; read-out: IC50 (cytotoxicity, two testicular cancer cell lines)
Description: Human testicular cancer cell lines, Tera-2 (embryonal carcinoma) and Ntera-2 (pluripotent embryonal carcinoma) were obtained from the American Type Culture Collection (ATCC) (Rockeville, Md.) and propagated in T-25, T-75, or T-150 cm^2 tissue culture flasks (Corning Corp., Corning, N.Y.) in McCoy's 5A medium and Dulbecco's modified Eagle's medium respectively. Both media were supplemented with 10% fetal calf serum (FCS), 4 mM glutamine, 100 U/ml penicillin G, and 100 mg/ml streptomycin sulfate. All tissue culture reagents were obtained from Life Technologies Inc. (GIBCO-BRL), Gaithersburg, Md. Cell lines were cultivated for a minimum of two passages after thawing prior to experimentation.
MTT (3-[4,5-dimethyl thiazol-2-yl]-2,5-diphenyltetrazolium bromide)-based colorimetric assays were used for evaluation of the cytotoxicity of vanadocene compounds. […] Briefly, cells were harvested with 0.125% (w/v) trypsin-0.02% EDTA (GIBCO-BRL) from exponential-phase maintenance cultures and centrifuged (300 g×5 min). After suspension and counting, cells were dispensed within triplicate 96-well tissue culture plates in 100 μl volumes. […] After an overnight incubation at 37° C., the optical densities at 540 nm were measured using a 96-well multiscanner autoreader, with the solubilization buffer serving as blank. All assays were run in triplicate and results were expressed as IC50 values.

[13] = system: Ntera-2 testicular cancer cells; test: MTT cytotoxicity assay of vanadocenes, NTERA-2 cells; format: cell-based, human; conditions: 24 h, 1.9-250 μM
Description: (§3) Human testicular cancer cell lines, Tera-2 (embryonal carcinoma) and Ntera-2 (pluripotent embryonal carcinoma) were obtained from the American Type Culture Collection (ATCC) (Rockeville, Md.) and propagated in T-25, T-75, or T-150 cm^2 tissue culture flasks (Corning Corp., Corning, N.Y.) in McCoy's 5A medium and Dulbecco's modified Eagle's medium respectively. Both media were supplemented with 10% fetal calf serum (FCS), 4 mM glutamine, 100 U/ml penicillin G, and […] streptomycin sulfate. All tissue culture reagents were obtained from Life Technologies Inc. (GIBCO-BRL), Gaithersburg, Md. Cell lines were cultivated for a minimum of two passages after thawing prior to experimentation. Other cell lines that were used in this study were the human B-lineage acute lymphoblastic leukemia (ALL) cell line NALM-6. Uckun, F. M., Evans, W. E., Forsyth, C. J., Waddick, K. G., Tuel-Ahlgren, L., Chelstrom, L. M., Burkhardt, A., Bolen, J., Myers, D. E. Biotherapy of B-cell precursor leukemia by targeting genistein to CD19-associated tyrosine kinase. Science (Washington DC) 267:886–91, 1995; T-lineage ALL cell line MOLT-3, Waurzyniak, B., Shneider, E. A., Tumer, N., Yanishevski, Y., Gunther, R., Chelstrom, L., Wendorf, H., Myers, D. E., Irvin, J. D., Messinger, Y., Ek, O., Zeren, T., Chandan-Langlie, M., Evans, W. E., Uckun, F. M. In vivo toxicity, pharmacokinetics, and antileukemic activity of TXU (anti-CD7)-pokeweed antiviral protein immunotoxin. Clinical Cancer Research 3:881–890, 1997; AML cell line HL-60, Perentesis, J. P., Waddick, K. G., Bendel, A. E., Shao, Y., Warman, B. E., Chandan-Langlie, M., and Uckun, F. M. Induction of apoptosis in multi-drug resistant andradiation-resistant acute myeloid leukemia cells by a recombinant fusion toxin directed against the granulocyte macrophage colony stimulating factor receptor. Clin. Cancer Res. 3:347–355, 1997; breast cancer cell lines MDA-MB-231 and BT-20, Uckun, F. M., Narla, R. K., Jun, X., Zeren, T., Venkatachalam, T., Waddick, K. G., Rostostev, A., Myers, D. E. Cytotoxic activity of EGF-genstein against breast cancer cells. Clin. Cancer Res. 4:901–912, 1998; glioblastoma cell lines U87 and U373, Narla, R. K., Liu, X., Myers, D. E., and Uckun, F. M. 4-(3′-Bromo-4′hydroxylphenyl)-amino-6,7-dimethoxyquinazoline (WHI-P154): A novel quinazoline derivative with potent cytotoxic activity against human glioblastoma cells. Clin. Cancer Res. 4:1405–1414, 1998.
(§4) MTT (3-[4,5-dimethyl thiazol-2-yl]-2,5-diphenyltetrazolium bromide)-based colorimetric assays were used for evaluation of the cytotoxicity of vanadocene compounds. Mosmann, T. Rapid colorimetric assay for cellular growth and survival: application to proliferation and cytotoxicity assays. J. Immunol. Methods, 65: 55–63, 1983. Briefly, cells were harvested with 0.125% (w/v) trypsin-0.02% EDTA (GIBCO-BRL) from exponential-phase maintenance cultures and centrifuged (300 g×5 min). After suspension and counting, cells were dispensed within triplicate 96-well tissue culture plates in 100 μl volumes. After 24 h incubation, the culture medium was discarded and replaced with 100 μl of fresh medium containing serial two-fold dilutions of drugs in medium to yield 1.9 μM to 250 μM. All compounds were reconstituted in DMSO to a concentration of 100 mM, and the stock solution was made fresh for each experiment. Control wells consisted of medium containing 0.25% of DMSO alone were used for solvent control. Culture plates were then incubated for 24 h before adding 10 μl of MTT solution (5 mg/ml in PBS) to each well. Wells containing only medium and MTT were used as controls for each plate. The tetrazolium/formazan reaction was allowed to proceed for 4 h at 37° C., and then 100 μl of the solubilization buffer (10% sodium dodecyl sulfate in 0.1% HCl) were added to all wells and mixed thoroughly to dissolve the dark blue formazan crystals. […]

[14] = system: Tera-2 testicular cancer cells; test: MTT cytotoxicity assay of vanadocenes, TERA-2 cells; format: cell-based, human; conditions: 24 h, 1.9-250 μM
Description: as §3, §4

## (diaqua)(4,7-dimethyl-1,10-phenanthroline)oxovanadium(IV) sulfate [Compound 28]
HL-60 cells
  IC50: 6.2 ± 2.3 µM
NALM-6 cells [1]
  apoptotic nuclei (FITC-dUTP / propidium iodide), NALM-6: many apoptotic yellow nuclei
HS-SULTAN cells
  apoptotic nuclei (FITC-dUTP / propidium iodide), HS-SULTAN: many apoptotic yellow nuclei
[2]
  IC50: 15.2 µM
U373 glioblastoma cells
  IC50: 2.2 µM
[3]
  IC50: 5.8 µM
NALM-6 cells [4]
  IC50: 0.78 ± 0.1 µM
[5]
  IC50: 3.3 ± 1.4 µM
[6]
  IC50: 8.1 ± 1.6 µM
[7]
  IC50: 57.6 µM
BT20 breast cancer cells
  IC50: 2.1 µM
MOLT-3 cells
  IC50: 1.37 ± 0.07 µM
[8]
  IC50: 12.8 µM
[9]
  IC50: 5.1 ± 1.02 µM
[10]
  IC50: 6 µM
[11]
  IC50: 1.3 ± 0.1 µM

## O=S(=O)([O-])[O-].[O]=[V+2] [VDSO4, vanadyl(IV) sulfate, reference compound]
[12]
  IC50: > 250 µM
[13]
  IC50: > 250 µM
[14]
  IC50: > 250 µM
